{"source": "BindingDB's records for doi:10.1128/AAC.00802-08", "about": "(University of Medicine and Dentistry of New Jersey, 2008)", "key": {"[1]": {"target": "T1, 1,3-beta-D-glucan synthase catalytic subunit (Candida albicans, UniProt O13383)", "T1 sequence (O13383 whole entry)": "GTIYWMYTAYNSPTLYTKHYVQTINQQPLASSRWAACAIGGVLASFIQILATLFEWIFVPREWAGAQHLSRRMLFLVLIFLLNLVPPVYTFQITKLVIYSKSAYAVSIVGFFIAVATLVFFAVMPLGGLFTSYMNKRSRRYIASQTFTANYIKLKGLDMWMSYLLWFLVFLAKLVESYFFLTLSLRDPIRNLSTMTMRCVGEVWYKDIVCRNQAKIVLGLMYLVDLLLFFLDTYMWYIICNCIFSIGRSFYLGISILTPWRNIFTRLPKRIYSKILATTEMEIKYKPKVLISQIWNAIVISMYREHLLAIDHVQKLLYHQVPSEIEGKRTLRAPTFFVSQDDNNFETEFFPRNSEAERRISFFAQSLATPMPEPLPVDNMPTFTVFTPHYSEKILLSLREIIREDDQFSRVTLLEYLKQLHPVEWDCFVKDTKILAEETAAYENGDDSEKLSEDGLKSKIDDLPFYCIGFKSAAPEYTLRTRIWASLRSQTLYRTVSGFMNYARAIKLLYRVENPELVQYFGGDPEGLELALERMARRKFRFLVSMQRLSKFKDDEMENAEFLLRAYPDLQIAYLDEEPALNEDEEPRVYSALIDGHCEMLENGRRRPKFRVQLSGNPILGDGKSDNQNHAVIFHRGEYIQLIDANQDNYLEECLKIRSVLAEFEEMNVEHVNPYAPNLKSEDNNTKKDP", "assay": "Inhibition of Candida albicans ATCC 90028 glucan synthase at monophasic kinetics"}, "1,3-beta-glucan synthase [2]": {"target": "1,3-beta-glucan synthase (Candida tropicalis, UniProt B6S6L8, F76L)", "sequence (B6S6L8 entry or part of it, stated change not applied)": "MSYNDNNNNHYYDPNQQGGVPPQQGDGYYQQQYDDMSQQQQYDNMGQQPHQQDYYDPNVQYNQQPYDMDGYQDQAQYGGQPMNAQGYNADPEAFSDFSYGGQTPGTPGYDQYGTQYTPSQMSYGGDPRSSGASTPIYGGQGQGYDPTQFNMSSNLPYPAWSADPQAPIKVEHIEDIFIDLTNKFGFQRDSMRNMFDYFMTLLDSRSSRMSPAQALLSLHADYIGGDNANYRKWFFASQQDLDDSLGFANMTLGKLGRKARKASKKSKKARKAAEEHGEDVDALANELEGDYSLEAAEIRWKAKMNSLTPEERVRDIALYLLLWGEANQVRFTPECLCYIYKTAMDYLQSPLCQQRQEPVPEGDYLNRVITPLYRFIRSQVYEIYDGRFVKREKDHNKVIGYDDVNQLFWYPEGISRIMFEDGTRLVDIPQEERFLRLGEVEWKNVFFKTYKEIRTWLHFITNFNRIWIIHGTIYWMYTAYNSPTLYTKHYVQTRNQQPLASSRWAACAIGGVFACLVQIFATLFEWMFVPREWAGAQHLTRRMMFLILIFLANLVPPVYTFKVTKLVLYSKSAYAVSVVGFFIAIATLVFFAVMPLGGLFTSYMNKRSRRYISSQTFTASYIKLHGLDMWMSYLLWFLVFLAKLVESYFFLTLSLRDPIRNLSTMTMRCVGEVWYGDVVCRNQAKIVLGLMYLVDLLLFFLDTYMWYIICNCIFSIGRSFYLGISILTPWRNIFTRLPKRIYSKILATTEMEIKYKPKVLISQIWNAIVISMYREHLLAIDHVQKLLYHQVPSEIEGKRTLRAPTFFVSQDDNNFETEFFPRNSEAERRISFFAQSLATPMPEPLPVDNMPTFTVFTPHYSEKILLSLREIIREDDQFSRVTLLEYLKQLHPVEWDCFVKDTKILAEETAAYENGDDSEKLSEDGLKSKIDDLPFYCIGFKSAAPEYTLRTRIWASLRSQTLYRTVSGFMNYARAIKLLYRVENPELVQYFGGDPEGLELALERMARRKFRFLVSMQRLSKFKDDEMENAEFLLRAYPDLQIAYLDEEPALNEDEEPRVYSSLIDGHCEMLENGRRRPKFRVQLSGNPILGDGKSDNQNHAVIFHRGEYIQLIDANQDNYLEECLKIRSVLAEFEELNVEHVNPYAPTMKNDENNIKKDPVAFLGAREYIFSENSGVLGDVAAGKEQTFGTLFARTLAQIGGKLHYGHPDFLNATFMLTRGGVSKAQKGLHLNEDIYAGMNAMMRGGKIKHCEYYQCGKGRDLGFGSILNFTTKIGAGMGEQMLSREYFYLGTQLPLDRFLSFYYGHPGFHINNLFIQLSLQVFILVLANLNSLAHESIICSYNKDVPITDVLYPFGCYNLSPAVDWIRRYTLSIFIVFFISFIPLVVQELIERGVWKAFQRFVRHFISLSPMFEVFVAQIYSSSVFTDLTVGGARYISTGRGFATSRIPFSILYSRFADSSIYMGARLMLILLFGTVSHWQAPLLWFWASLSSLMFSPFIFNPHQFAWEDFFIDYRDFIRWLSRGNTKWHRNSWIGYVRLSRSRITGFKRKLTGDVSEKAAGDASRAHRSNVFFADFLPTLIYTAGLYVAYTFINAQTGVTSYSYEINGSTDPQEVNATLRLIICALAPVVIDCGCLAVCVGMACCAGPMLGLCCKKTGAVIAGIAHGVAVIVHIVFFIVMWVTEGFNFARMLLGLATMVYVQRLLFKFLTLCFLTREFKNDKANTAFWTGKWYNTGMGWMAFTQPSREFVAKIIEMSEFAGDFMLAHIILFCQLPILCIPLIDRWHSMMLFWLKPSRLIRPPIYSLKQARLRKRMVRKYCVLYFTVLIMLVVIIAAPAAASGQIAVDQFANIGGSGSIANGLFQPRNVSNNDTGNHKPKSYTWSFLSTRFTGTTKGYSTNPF", "assay": "Inhibition of Candida tropicalis T26 blood stream isolate glucan synthase subunit FKS1p with LLTLSLRDP mutant at monophasic kinetics"}, "1,3-beta-glucan synthase [3]": {"target": "T2, 1,3-beta-glucan synthase (Candida tropicalis, UniProt B6S6L8, S80P)", "T2 sequence (B6S6L8 entry or part of it, stated change not applied)": "as above", "assay": "Inhibition of Candida tropicalis T19 blood stream isolate glucan synthase subunit FKS1p with FLTLS/PLRDP mutant at biphasic kinetics"}, "1,3-beta-glucan synthase [4]": {"target": "T2, 1,3-beta-glucan synthase", "assay": "Inhibition of Candida tropicalis T19 blood stream isolate glucan synthase subunit FKS1p with FLTLS/PLRDP mutant at monophasic kinetics"}, "1,3-beta-glucan synthase [5]": {"target": "T2, 1,3-beta-glucan synthase", "assay": "Inhibition of Candida tropicalis T3 blood stream isolate glucan synthase subunit FKS1p with FLTLS/PLRDP mutant at biphasic kinetics"}, "1,3-beta-glucan synthase [6]": {"target": "T2, 1,3-beta-glucan synthase", "assay": "Inhibition of Candida tropicalis T3 blood stream isolate glucan synthase subunit FKS1p with FLTLS/PLRDP mutant at monophasic kinetics"}}, "data": [{"smiles": "CCC(C)CC(C)CCCCCCCCC(=O)N[C@H]1C[C@@H](O)[C@@H](NCCN)NC(=O)[C@@H]2[C@@H](O)CCN2C(=O)[C@H]([C@H](O)CCN)NC(=O)[C@H]([C@H](O)[C@@H](O)c2ccc(O)cc2)NC(=O)[C@@H]2C[C@@H](O)CN2C(=O)[C@H]([C@@H](C)O)NC1=O", "note": "(stereo partly specified) [CHEBI:474180]", "values": [{"measurement": "IC50", "setting": "[1]", "result": 0.5, "unit": "nM"}, {"measurement": "IC50", "setting": "1,3-beta-glucan synthase [2]", "result": 77, "unit": "nM"}, {"measurement": "IC50", "setting": "1,3-beta-glucan synthase [3]", "result": 264, "unit": "nM"}, {"measurement": "IC50", "setting": "1,3-beta-glucan synthase [4]", "result": 0.296, "unit": "nM"}, {"measurement": "IC50", "setting": "1,3-beta-glucan synthase [5]", "result": 370, "unit": "nM"}, {"measurement": "IC50", "setting": "1,3-beta-glucan synthase [6]", "result": 0.306, "unit": "nM"}]}]}
